Data as given in patent publication US8741806B2, “Herbicides” (Syngenta Limited, priority 2009, dated 2014).

Key:
Assay type in all cases: in vivo
[1] = tested on: Alopecurus myosuroides (ALOMY); experiment: Example A pre-emergence herbicidal activity, glasshouse pot test; details: Rate 250 g/ha, evaluated 20 days later, 100=total damage to plant, 0=no damage to plant
Experimental: (§1) Seeds of a variety of test species were sown in standard soil in pots. After cultivation for one day (pre-emergence) or after 10 days cultivation (post-emergence) under controlled conditions in a glasshouse, the plants were sprayed with an aqueous spray solution derived from the formulation of the technical active ingredient of formula I in 0.6 ml acetone and 45 ml formulation solution containing 10.6% Emulsogen EL (Registry number 61791-12-6), 42.2% N-methylpyrrolidone, 42.2% dipropylene glycol monomethyl ether (Registry number 34590-94-8) and 0.2% X-77 (Registry number 11097-66-8). The test plants were then grown in a greenhouse under optimum conditions until, 15 days later for post-emergence and 20 days for pre-emergence, the test was evaluated (100=total damage to plant; 0=no damage to plant). The compound of Example 1-8-a-1 from WO99/48869 was also sprayed for comparison. Alopecurus myosuroides (ALOMY), Avena fatua (AVEFA), Lolium perenne (LOLPE), Setaria faberi (SETFA), Digitaria sanguinalis (DIGSA), Echinochloa crus-galli (ECHCG) and Sorghum bicolor (SORVU) Pre-Emergence Activity

[2] = tested on: Digitaria sanguinalis (DIGSA); experiment: as above; details: Rate 250 g/ha, evaluated 20 days later, 100=total damage to plant, 0=no damage to plant
Experimental: as §1

Lolium perenne (LOLPE) = experiment: as above; details: Rate 250 g/ha, evaluated 20 days later, 100=total damage to plant, 0=no damage to plant
Experimental: as §1

Avena fatua (AVEFA) [3] = experiment: as above; details: Rate 250 g/ha, evaluated 20 days later, 100=total damage to plant, 0=no damage to plant
Experimental: as §1

Setaria faberi (SETFA) [4] = experiment: as above; details: Rate 250 g/ha, evaluated 20 days later, 100=total damage to plant, 0=no damage to plant
Experimental: as §1

[5] = tested on: Echinochloa crus-galli (ECHCG); experiment: as above; details: Rate 250 g/ha, evaluated 20 days later, 100=total damage to plant, 0=no damage to plant
Experimental: as §1

[6] = tested on: Alopecurus myosuroides (ALOMY); experiment: Example B post-emergence herbicidal activity, glasshouse pot test; details: 312 h, rate 250 g/ha, evaluated after 13 days, scale 0-100, read-out: Post-emergence activity ALOMY (100=total damage to plant; 0=no damage to plant)
Outline: (§2)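 Seeds sown in standard soil, grown 8 days in glasshouse (24/16 °C day/night, 14 h light, 65% humidity), then sprayed post-emergence with compound in acetone/water (50:50) containing 0.5% Tween 20. Damage scored visually after 13 days on a 0–100 scale (100 = total damage).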

Avena fatua (AVEFA) [7] = experiment: as above; details: 312 h, rate 250 g/ha, evaluated after 13 days, scale 0-100, read-out: Post-emergence activity AVEFA (100=total damage to plant; 0=no damage to plant)
Outline: as §2

Setaria faberi (SETFA) [8] = experiment: as above; details: rate 250 g/ha, evaluated after 13 days, scale 0-100
Outline: as §2

[9] = tested on: Echinochloa crus-galli (ECHCG); experiment: as above; details: 312 h, rate 250 g/ha, evaluated after 13 days, scale 0-100, read-out: Post-emergence activity ECHCG (100=total damage to plant; 0=no damage to plant)
Outline: as §2

[10] = tested on: Alopecurus myosuroides (ALOMY); experiment: Example A post-emergence herbicidal activity, glasshouse pot test; details: Rate 15 g/ha, evaluated 15 days later, 100=total damage to plant, 0=no damage to plant
Experimental: as §1, with “Post-Emergence” for “Pre-Emergence”

[11] = tested on: Digitaria sanguinalis (DIGSA); experiment: as above; details: Rate 15 g/ha, evaluated 15 days later, 100=total damage to plant, 0=no damage to plant
Experimental: as §1, with “Post-Emergence” for “Pre-Emergence”

Avena fatua (AVEFA) [12] = experiment: as above; details: Rate 15 g/ha, evaluated 15 days later, 100=total damage to plant, 0=no damage to plant
Experimental: as §1, with “Post-Emergence” for “Pre-Emergence”

Sorghum bicolor (SORVU) = experiment: as above; details: Rate 15 g/ha, evaluated 15 days later, 100=total damage to plant, 0=no damage to plant
Experimental: as §1, with “Post-Emergence” for “Pre-Emergence”

Setaria faberi (SETFA) [13] = experiment: as above; details: Rate 15 g/ha, evaluated 15 days later, 100=total damage to plant, 0=no damage to plant
Experimental: as §1, with “Post-Emergence” for “Pre-Emergence”

[14] = tested on: Echinochloa crus-galli (ECHCG); experiment: as above; details: Rate 15 g/ha, evaluated 15 days later, 100=total damage to plant, 0=no damage to plant
Experimental: as §1, with “Post-Emergence” for “Pre-Emergence”

[15] = tested on: Alopecurus myosuroides (ALOMY); experiment: Example B pre-emergence herbicidal activity, glasshouse pot test; details: 312 h, rate 250 g/ha, evaluated after 13 days, scale 0-100, read-out: Pre-emergence activity ALOMY (100=total damage to plant; 0=no damage to plant)
Outline: (§3)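 Pots were sprayed one day after sowing with the active ingredient in acetone/water (50:50) containing 0.5% Tween 20. Plants were kept in a glasshouse at 24/16° C day/night, 14 h light, 65% humidity. Damage was scored 13 days later (0 none to 100 total).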

Avena fatua (AVEFA) [16] = experiment: as above; details: 312 h, rate 250 g/ha, evaluated after 13 days, scale 0-100, read-out: Pre-emergence activity AVEFA (100=total damage to plant; 0=no damage to plant)
Outline: as §3

Setaria faberi (SETFA) [17] = experiment: as above; details: rate 250 g/ha, evaluated after 13 days, scale 0-100
Outline: as §3

[18] = tested on: Echinochloa crus-galli (ECHCG); experiment: as above; details: 312 h, rate 250 g/ha, evaluated after 13 days, scale 0-100, read-out: Pre-emergence activity ECHCG (100=total damage to plant; 0=no damage to plant)
Outline: as §3

Question: What does the source list for `CCc1ccc(-c2ccc(Cl)cc2)cc1C1=C(O)CC(C)(C)CC1=O` [Compound T3]?
Answer: Pre-Emergence Activity ALOMY (damage to plant) [1]: 90; Pre-Emergence Activity DIGSA (damage to plant) [2]: 100; Pre-Emergence Activity LOLPE (damage to plant) (Lolium perenne (LOLPE)): 100; Pre-Emergence Activity AVEFA (damage to plant) (Avena fatua (AVEFA) [3]): 50; Pre-Emergence Activity SETFA (damage to plant) (Setaria faberi (SETFA) [4]): 80; Pre-Emergence Activity ECHCG (damage to plant) [5]: 100; pest or weed control at 250 g/ha [6]: 100%; pest or weed control at 250 g/ha (Avena fatua (AVEFA) [7]): 20%; Post-emergence activity SETFA (100=total damage to plant; 0=no damage to plant) (Setaria faberi (SETFA) [8]): 100; pest or weed control at 250 g/ha [9]: 100%; Post-Emergence Activity ALOMY (damage to plant) [10]: 50; Post-Emergence Activity DIGSA (damage to plant) [11]: 70; Post-Emergence Activity AVEFA (damage to plant) (Avena fatua (AVEFA) [12]): 20; Post-Emergence Activity SORVU (damage to plant) (Sorghum bicolor (SORVU)): 70; Post-Emergence Activity SETFA (damage to plant) (Setaria faberi (SETFA) [13]): 70; Post-Emergence Activity ECHCG (damage to plant) [14]: 70; pest or weed control at 250 g/ha [15]: 60%; pest or weed control at 250 g/ha (Avena fatua (AVEFA) [16]): 20%; Pre-emergence activity SETFA (100=total damage to plant; 0=no damage to plant) (Setaria faberi (SETFA) [17]): 100; pest or weed control at 250 g/ha [18]: 100%

Question: Which results are given for `CCc1ccc(-c2ccc(Cl)cc2)cc1C1=C(O)CCCC1=O` [Compound T2]?
Answer: Pre-Emergence Activity ALOMY (damage to plant) [1]: 60; Pre-Emergence Activity DIGSA (damage to plant) [2]: 80; Pre-Emergence Activity LOLPE (damage to plant) (Lolium perenne (LOLPE)): 70; Pre-Emergence Activity AVEFA (damage to plant) (Avena fatua (AVEFA) [3]): 70; Pre-Emergence Activity SETFA (damage to plant) (Setaria faberi (SETFA) [4]): 80; Pre-Emergence Activity ECHCG (damage to plant) [5]: 100; pest or weed control at 250 g/ha [6]: 90%; pest or weed control at 250 g/ha (Avena fatua (AVEFA) [7]): 80%; Post-emergence activity SETFA (100=total damage to plant; 0=no damage to plant) (Setaria faberi (SETFA) [8]): 100; pest or weed control at 250 g/ha [9]: 100%; Post-Emergence Activity ALOMY (damage to plant) [10]: 0; Post-Emergence Activity DIGSA (damage to plant) [11]: 80; Post-Emergence Activity AVEFA (damage to plant) (Avena fatua (AVEFA) [12]): 0; Post-Emergence Activity SORVU (damage to plant) (Sorghum bicolor (SORVU)): 70; Post-Emergence Activity SETFA (damage to plant) (Setaria faberi (SETFA) [13]): 80; Post-Emergence Activity ECHCG (damage to plant) [14]: 90; pest or weed control at 250 g/ha [15]: 40%; pest or weed control at 250 g/ha (Avena fatua (AVEFA) [16]): 40%; Pre-emergence activity SETFA (100=total damage to plant; 0=no damage to plant) (Setaria faberi (SETFA) [17]): 100; pest or weed control at 250 g/ha [18]: 100%
